PubChem BioAssay AID2060607 (Molecular Pharmacology Branch, DTP, NCI, 2025)

Tested on: 876862-298-R-J1-PDC complex spheroids, viability % test/control
Assay: Anticancer human tumor 876862-298-R-J1-PDC patient-derived endometrial carcinoma cell line growth inhibition [CLK]
Conditions: for IC50: curve of first compound; for viability, T/C: stronger effect = lower value
Summary of the method: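 Patient-derived tumor cells grown as complex spheroids with HUVEC endothelial cells and mesenchymal stem cells, treated with drug combinations. Concentrations descend in half-log steps from near clinical Cmax, or from 10 microM if Cmax unknown.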

[1] = second compound 0.0316 µM, first compound 0.0316 µM
[2] = second compound 0.0316 µM, first compound 0.1 µM
[3] = second compound 0.0316 µM, first compound 0.316 µM
[4] = second compound 0.0316 µM, first compound 1 µM
[5] = second compound 0.0316 µM, first compound 3.16 µM
[6] = second compound 0.0316 µM, first compound 10 µM
[7] = second compound 0.1 µM, first compound 0.0316 µM
[8] = second compound 0.1 µM, first compound 0.1 µM
[9] = second compound 0.1 µM, first compound 0.316 µM
[10] = second compound 0.1 µM, first compound 1 µM
[11] = second compound 0.1 µM, first compound 3.16 µM
[12] = second compound 0.1 µM, first compound 10 µM
[13] = second compound 0.316 µM, first compound 0.0316 µM
[14] = second compound 0.316 µM, first compound 0.1 µM
[15] = second compound 0.316 µM, first compound 0.316 µM
[16] = second compound 0.316 µM, first compound 1 µM
[17] = second compound 0.316 µM, first compound 3.16 µM
[18] = second compound 0.316 µM, first compound 10 µM
[19] = second compound 1 µM, first compound 0.0316 µM
[20] = second compound 1 µM, first compound 0.1 µM
[21] = second compound 1 µM, first compound 0.316 µM
[22] = second compound 1 µM, first compound 1 µM
[23] = second compound 1 µM, first compound 3.16 µM
[24] = second compound 1 µM, first compound 10 µM
[25] = second compound 3.16 µM, first compound 0.0316 µM
[26] = second compound 3.16 µM, first compound 0.1 µM
[27] = second compound 3.16 µM, first compound 0.316 µM
[28] = second compound 3.16 µM, first compound 1 µM
[29] = second compound 3.16 µM, first compound 3.16 µM
[30] = second compound 3.16 µM, first compound 10 µM
[31] = second compound 10 µM, first compound 0.0316 µM
[32] = second compound 10 µM, first compound 0.1 µM
[33] = second compound 10 µM, first compound 0.316 µM
[34] = second compound 10 µM, first compound 1 µM
[35] = second compound 10 µM, first compound 3.16 µM
[36] = second compound 10 µM, first compound 10 µM
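Note: spheroids exposed to drugs for 7 days before readout.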
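Throughout, for viability, T/C: 100% = DMSO vehicle control wells.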

COc1ccc([C@@H](O)c2cc(-c3ncnc4cc(N5CCOCC5)ccc34)c(F)cc2Cl)nn1 + CNC(=O)c1ccc(Nc2nc(OC3CCCC3)c3c(-c4ccc5nc(C)oc5c4)c[nH]c3n2)c(OC)c1
IC50 (second compound 0.0316 µM): 3010 nM
IC50 (second compound 0.1 µM): 81.2 nM
IC50 (second compound 0.316 µM): < 31.6 nM
IC50 (second compound 1 µM): < 31.6 nM
IC50 (second compound 3.16 µM): < 31.6 nM
IC50 (second compound 10 µM): < 31.6 nM
viability, T/C [1]: 72%
viability, T/C [2]: 84.4%
viability, T/C [3]: 69.5%
viability, T/C [4]: 66.1%
viability, T/C [5]: 49.4%
viability, T/C [6]: 30.5%
viability, T/C [7]: 50.6%
viability, T/C [8]: 49.3%
viability, T/C [9]: 48.7%
viability, T/C [10]: 38.8%
viability, T/C [11]: 34%
viability, T/C [12]: 26.8%
viability, T/C [13]: 47%
viability, T/C [14]: 39.7%
viability, T/C [15]: 47.7%
viability, T/C [16]: 33.2%
viability, T/C [17]: 27.1%
viability, T/C [18]: 21.6%
viability, T/C [19]: 31.9%
viability, T/C [20]: 28.8%
viability, T/C [21]: 30.4%
viability, T/C [22]: 26.8%
viability, T/C [23]: 21.1%
viability, T/C [24]: 15.5%
viability, T/C [25]: 25%
viability, T/C [26]: 21.2%
viability, T/C [27]: 18.5%
viability, T/C [28]: 20.3%
viability, T/C [29]: 17.2%
viability, T/C [30]: 11.9%
viability, T/C [31]: 23.2%
viability, T/C [32]: 19.2%
viability, T/C [33]: 17.9%
viability, T/C [34]: 16.3%
viability, T/C [35]: 17%
viability, T/C [36]: 10.2%

COc1cccc2c1C(=O)c1c(O)c3c(c(O)c1C2=O)CC(O)(C(=O)CO)CC3OC1CC(N)C(O)C(C)O1 (centres undefined) + CNC(=O)c1ccc(Nc2nc(OC3CCCC3)c3c(-c4ccc5nc(C)oc5c4)c[nH]c3n2)c(OC)c1
IC50 (second compound 0.0316 µM): < 31.6 nM
IC50 (second compound 0.1 µM): < 31.6 nM
IC50 (second compound 0.316 µM): < 31.6 nM
IC50 (second compound 1 µM): < 31.6 nM
IC50 (second compound 3.16 µM): < 31.6 nM
IC50 (second compound 10 µM): < 31.6 nM
viability, T/C [1]: 27.4%
viability, T/C [2]: 11.2%
viability, T/C [3]: 6.58%
viability, T/C [4]: 5.25%
viability, T/C [5]: 0.7%
viability, T/C [6]: 4.06%
viability, T/C [7]: 22.3%
viability, T/C [8]: 10.5%
viability, T/C [9]: 6.67%
viability, T/C [10]: 4.08%
viability, T/C [11]: 0.67%
viability, T/C [12]: 3.82%
viability, T/C [13]: 21.7%
viability, T/C [14]: 7.88%
viability, T/C [15]: 5.6%
viability, T/C [16]: 2.96%
viability, T/C [17]: 0.81%
viability, T/C [18]: 4.75%
viability, T/C [19]: 15.3%
viability, T/C [20]: 5.96%
viability, T/C [21]: 4.62%
viability, T/C [22]: 2.24%
viability, T/C [23]: 1.51%
viability, T/C [24]: 5.96%
viability, T/C [25]: 13%
viability, T/C [26]: 6.62%
viability, T/C [27]: 3.35%
viability, T/C [28]: 1.57%
viability, T/C [29]: 1.6%
viability, T/C [30]: 6.55%
viability, T/C [31]: 12.1%
viability, T/C [32]: 5.47%
viability, T/C [33]: 3.35%
viability, T/C [34]: 1.56%
viability, T/C [35]: 2.15%
viability, T/C [36]: 7.11%
